Patent US20040019018A1, “Rigid pyrrolidone modulators of pkc” (priority 2003, published 2004)

Columns and labels:
[1] = molecular target: T1, β-PKC (Homo sapiens, UniProt P05771); test: [3H]PDBu displacement from recombinant PKC isozyme (baculovirus); format: binding; details: [3H]PDBu competition
T1 construct: made in house; host or cells: Sf9 cells (baculovirus)
Description: (§1) These procedures are described below. […] (See the key that follows)
(§2) Analysis of [20-^3H]phorbol 12,13-dibutyrate binding to PKC. […] [^3H]PDBu (20.0 Ci/mmol) was obtained from New England Nuclear. Phosphatidylserine and bovine […] were obtained from Sigma Chemical Co. Binding was determined in an incubation volume of 250 μl, containing [^3H]PDBu, PKC, 0.05 M Tris-Cl, pH 7.4, 100 μg/ml phosphatidylserine, various concentrations of the ligand being assayed for competition of [^3H]PDBu binding, and bovine […] at 1 mg/ml. In the case of the classical PKCs (α, β, […]) CaCl2 was included at a concentration of 0.1 mM. Liposomes of phosphatidylserine were prepared as follows. The phosphatidylserine solutions were dried down from CHCl3 under a stream of N2. After addition of 0.05 M Tris-Cl, pH 7.4, liposomes were prepared by sonication for 30 sec with the microtip probe of Sonifier Cell Disrupter (Heat Systems-Ultrasonics). [^3H]PDBu was used at a concentration twice the Kd previously determined for the specific receptor. Ligands were assayed over a concentration range of 3 orders of magnitude. Ligands were diluted in 0.05 M Tris-Cl, pH 7.4 containing 1 mg/ml bovine g-globulin. If the compounds were not soluble at the highest concentration used, they were dissolved in organic solvent (CHCl3 or ethanol) and mixed with the phosphatidylserine dissolved in CHCl3. The solvent was removed under a stream of N2.
(§3) Mixed liposomes were then prepared, as described for the preparation of the liposomes of phosphatidylserine alone, by the addition of 0.05 M Tris-Cl, pH 7.4, and sonication for 30 sec with the microtip probe of a Sonifier Cell Disrupter (Heat Systems-Ultrasonics). Incubation was for 5 min at 37° C. […] After vigorous mixing, the samples were incubated for 15 min to allow precipitation of the receptor. The precipitate was recovered by centrifugation at 12,000 rpm in a Beckman microcentrifuge at 4° C. […] This value provided a measure of the concentration of unbound [^3H]PDBu. The remainder of the supernatant was removed by aspiration and blotting with absorbent tissue. The tip of the centrifuge tube was cut off and the radioactivity in the pellet measured to determine total bound [^3H]PDBu. Non-specific binding of [^3H]PDBu was measured in the presence of 30 μM non-radioactive PDBu and used to determine an apparent partition coefficient for [^3H]PDBu under these assay conditions.
(§4) Specific binding represents the difference between total binding and the non-specific binding, where the latter value was calculated from the partition coefficient and the measured free [^3H]PDBu concentration in each tube. In each experiment, triplicate determinations were performed at each concentration of competing ligand. A half-maximal inhibitory concentration of inhibitor and a Ki for the inhibitor was determined by computer fit of the data points to the equation B(I)/B(O)=(L+Kd)/(Kd+(Kd/Ki)(I)+L), where B(I) represents the amount of [^3H]PDBu specifically bound in the presence of inhibitor, B(O) represents the amount specifically bound in the absence of inhibitor, L is the concentration of [^3H]PDBu, Kd is the measured dissociation constant for [^3H]PDBu, Ki is the dissociation constant for the inhibitor, and I is the concentration of inhibitor.
(§5) Expression of PKC isozymes in baculovirus. […] After 60-72 hr, the cells were centrifuged (1000 rpm, 10 min) and washed twice with phosphate buffered saline, and the pelleted cells kept at −70° C. until used.
(§6) For purification of the individual PKC isozymes, the cell pellet was resuspended in […] of a homogenization buffer of the following composition; 20 mM Tris-Cl, pH 8.0, 5 mM EDTA, 5 mM EGTA, 0.3% (v/v) 2-mercaptoethanol, 10 mM benzamidine, 50 μg/ml phenylmethylsulfonyl fluoride, and 250 μg/ml leupeptin. The cells were disrupted in a Potter-Elvehjem homogenizer at 4° C., and the homogenate is centrifuged at 100,000×g for 60 min.

[2] = molecular target: T2, δ-PKC (Homo sapiens, UniProt Q05655); test: as above; format: binding; details: [3H]PDBu competition
T2 construct: made in house; host or cells: Sf9 cells (baculovirus)
T2 sequence (Q05655 whole entry): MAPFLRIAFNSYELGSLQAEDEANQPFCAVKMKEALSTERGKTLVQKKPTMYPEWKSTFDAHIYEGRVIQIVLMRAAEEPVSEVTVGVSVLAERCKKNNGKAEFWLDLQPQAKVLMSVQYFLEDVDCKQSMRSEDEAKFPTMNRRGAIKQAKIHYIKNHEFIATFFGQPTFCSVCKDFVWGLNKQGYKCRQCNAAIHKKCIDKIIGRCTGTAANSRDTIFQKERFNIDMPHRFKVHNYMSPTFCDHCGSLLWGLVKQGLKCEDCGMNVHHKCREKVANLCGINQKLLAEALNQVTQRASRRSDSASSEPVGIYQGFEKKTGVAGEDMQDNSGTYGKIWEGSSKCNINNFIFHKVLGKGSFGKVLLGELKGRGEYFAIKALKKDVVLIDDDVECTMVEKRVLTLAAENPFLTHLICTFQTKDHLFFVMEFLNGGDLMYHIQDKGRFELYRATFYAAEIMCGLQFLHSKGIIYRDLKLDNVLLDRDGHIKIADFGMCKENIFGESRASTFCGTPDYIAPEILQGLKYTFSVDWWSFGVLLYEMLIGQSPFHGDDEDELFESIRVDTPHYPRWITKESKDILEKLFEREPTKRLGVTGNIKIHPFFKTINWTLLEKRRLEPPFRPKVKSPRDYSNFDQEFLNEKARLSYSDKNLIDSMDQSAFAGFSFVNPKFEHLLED
Description: as §1, §2, §3, §4, §5, §6

T1 sequence (P05771 whole entry): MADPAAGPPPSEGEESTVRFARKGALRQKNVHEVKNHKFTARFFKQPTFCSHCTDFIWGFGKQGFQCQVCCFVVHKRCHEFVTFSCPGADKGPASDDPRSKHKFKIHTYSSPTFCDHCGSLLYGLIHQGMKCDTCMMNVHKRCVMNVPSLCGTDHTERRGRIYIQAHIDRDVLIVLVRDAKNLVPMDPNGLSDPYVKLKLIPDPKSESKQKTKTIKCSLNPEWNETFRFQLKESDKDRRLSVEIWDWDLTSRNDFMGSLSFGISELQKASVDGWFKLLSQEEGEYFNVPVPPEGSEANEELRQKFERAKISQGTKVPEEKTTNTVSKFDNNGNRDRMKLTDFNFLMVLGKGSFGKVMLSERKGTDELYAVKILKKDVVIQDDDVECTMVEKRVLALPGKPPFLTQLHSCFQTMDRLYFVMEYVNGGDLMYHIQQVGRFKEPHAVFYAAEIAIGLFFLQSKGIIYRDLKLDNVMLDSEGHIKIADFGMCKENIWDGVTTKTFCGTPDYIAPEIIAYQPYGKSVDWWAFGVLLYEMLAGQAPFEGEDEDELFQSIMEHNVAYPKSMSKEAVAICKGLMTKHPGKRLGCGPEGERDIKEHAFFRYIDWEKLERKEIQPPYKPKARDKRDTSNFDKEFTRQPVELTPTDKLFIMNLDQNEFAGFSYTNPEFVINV

| Ki [1] [nM] | Ki [2] [nM] | Structure (SMILES) |
| --- | --- | --- |
| 8490 ± 3310 | 4370 ± 214 | CCCCCCCCCCCC(=O)Oc1cc2c(cc1C(C)=O)[C@@H]1[C@@H](CO)NC(=O)[C@@H]1[C@]2(C)C(C)C [Compound 4, (3S, 8S, 9S, 10S)-5-acetyl-6-dodecanoyloxyl-3-hydroxymethyl-8-isopropyl-8-methyl-3,3a,8,8a-tetrahydro-2H -2-aza-cyclopenta[a]inden-1-one] |
| – | 1630 ± 391 | CCCCCCCCC#Cc1ccc2c(c1)C(C)(C(C)C)C1C(=O)NC(CO)C21 [Compound 1, (3S, 8R, 9S, 10S)-6-(dec-1′-ynyl)-3-hydroxymethyl-8-isopropyl-8-methyl-3,3a,8,8a-tetrahydro-2H-2-aza-cyclopenta[a]inden-1-one] |
| > 10000 | – | CCCCCCCCCCCC(=O)Oc1cc2c(cc1C(C)=O)[C@@H]1[C@@H](CO)NC(=O)[C@@H]1[C@@]2(C)C(C)C [Compound 11, (3S, 8R, 9S, 10S)-5-acetyl-6-dodecanoyloxyl-3-hydroxymethyl-8-isopropyl-8-methyl-3,3a,8,8a-tetrahydro-2H -2-aza-cyclopenta[a]inden-1-one] |
| 1610 ± 257 | 623 ± 318 | CCCCCCCCCCCC(=O)Oc1cc2c(cc1Br)[C@@H]1[C@@H](CO)NC(=O)[C@@H]1[C@]2(C)C(C)C [Compound 5, (3S, 8S, 9S, 10S)-5-bromo-6-dodecanoyloxyl-3-hydroxymethyl-8-isopropyl-8-methyl-3,3a,8,8a-tetrahydro-2H -2-aza-cyclopenta[a]inden-1-one] |

| Structure (SMILES) | Ki [1] [nM] | Ki [2] [nM] |
| --- | --- | --- |
| CCCCCCCCCCCC(=O)Oc1ccc2c(c1)[C@](C)(C(C)C)[C@H]1C(=O)N[C@H](CO)[C@@H]21 [Compound 2, (3S, 8R, 9S, 10S)-6-dodecanoyloxyl-3-hydroxymethyl-8-isopropyl-8-methyl-3,3a,8,8a-tetrahydro-2H -2-aza-cyclopenta[a]inden-1-one] | 593 ± 178 | 1370 ± 329 |
| CCCCCCCCCCCC(=O)Oc1ccc2c(c1)[C@@](C)(C(C)C)[C@H]1C(=O)N[C@H](CO)[C@@H]21 [Compound 3, (3S, 8S, 9S, 10S)-6-dodecanoyloxyl-3-hydroxymethyl-8-isopropyl-8-methyl-3,3a,8,8a-tetrahydro-2H -2-aza-cyclopenta[a]inden-1-one] | 1050 ± 284 | 150 ± 64 |
